Measurements as given in ChEMBL document CHEMBL1201862, “PubChem BioAssay data set” (2004).
Calls of active or inactive are those of the source.

How the values were obtained:
[1] = biological target: Fructose-bisphosphate aldolase (Mycobacterium tuberculosis, UniProt P9WQA3); experiment: Fluorescence-based biochemical high throughput dose response assay for inhibitors of the fructose-bisphosphate aldolase (FBA) of M. tuberculosis.; format: functional
Beta-galactosidase = Beta-galactosidase (Escherichia coli, UniProt Q8VNN2); experiment: Dose response counterscreen for EBI2 assay utilizing the enzyme, b-galactosidase.; format: functional
Sequence of Beta-galactosidase (Q8VNN2 whole entry): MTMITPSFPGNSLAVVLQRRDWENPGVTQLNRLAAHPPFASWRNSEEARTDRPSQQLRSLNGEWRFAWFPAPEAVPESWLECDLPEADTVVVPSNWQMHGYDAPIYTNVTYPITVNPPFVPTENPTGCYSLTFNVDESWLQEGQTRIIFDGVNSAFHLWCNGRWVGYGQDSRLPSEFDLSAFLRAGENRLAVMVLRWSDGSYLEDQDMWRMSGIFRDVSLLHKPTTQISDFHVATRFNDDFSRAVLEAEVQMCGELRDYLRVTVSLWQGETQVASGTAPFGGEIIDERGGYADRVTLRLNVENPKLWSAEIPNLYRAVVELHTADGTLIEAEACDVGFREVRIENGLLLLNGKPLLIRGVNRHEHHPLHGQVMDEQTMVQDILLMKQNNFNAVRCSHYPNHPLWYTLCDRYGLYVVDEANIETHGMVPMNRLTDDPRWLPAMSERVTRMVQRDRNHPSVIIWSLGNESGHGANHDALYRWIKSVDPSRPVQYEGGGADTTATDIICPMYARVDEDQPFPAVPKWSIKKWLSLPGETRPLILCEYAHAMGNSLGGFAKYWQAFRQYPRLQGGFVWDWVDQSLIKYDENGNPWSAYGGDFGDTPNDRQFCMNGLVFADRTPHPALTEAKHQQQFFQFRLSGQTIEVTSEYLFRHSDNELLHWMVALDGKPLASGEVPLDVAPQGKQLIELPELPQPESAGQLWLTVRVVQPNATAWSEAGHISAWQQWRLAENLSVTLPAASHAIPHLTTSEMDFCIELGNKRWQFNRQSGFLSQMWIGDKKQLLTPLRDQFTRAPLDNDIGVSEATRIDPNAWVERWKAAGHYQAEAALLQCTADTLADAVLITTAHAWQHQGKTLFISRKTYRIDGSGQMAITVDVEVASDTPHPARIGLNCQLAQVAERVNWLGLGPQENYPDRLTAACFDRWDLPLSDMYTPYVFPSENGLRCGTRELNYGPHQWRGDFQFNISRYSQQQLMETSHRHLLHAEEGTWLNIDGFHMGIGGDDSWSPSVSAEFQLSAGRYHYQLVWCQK

[2] = biological target: T1, Aryl hydrocarbon receptor (Homo sapiens, UniProt P35869); conditions: Potency;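 further: confirmatory quantitative high-throughput screen measuring activation of the AhR signaling pathway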
T1 sequence (P35869 whole entry): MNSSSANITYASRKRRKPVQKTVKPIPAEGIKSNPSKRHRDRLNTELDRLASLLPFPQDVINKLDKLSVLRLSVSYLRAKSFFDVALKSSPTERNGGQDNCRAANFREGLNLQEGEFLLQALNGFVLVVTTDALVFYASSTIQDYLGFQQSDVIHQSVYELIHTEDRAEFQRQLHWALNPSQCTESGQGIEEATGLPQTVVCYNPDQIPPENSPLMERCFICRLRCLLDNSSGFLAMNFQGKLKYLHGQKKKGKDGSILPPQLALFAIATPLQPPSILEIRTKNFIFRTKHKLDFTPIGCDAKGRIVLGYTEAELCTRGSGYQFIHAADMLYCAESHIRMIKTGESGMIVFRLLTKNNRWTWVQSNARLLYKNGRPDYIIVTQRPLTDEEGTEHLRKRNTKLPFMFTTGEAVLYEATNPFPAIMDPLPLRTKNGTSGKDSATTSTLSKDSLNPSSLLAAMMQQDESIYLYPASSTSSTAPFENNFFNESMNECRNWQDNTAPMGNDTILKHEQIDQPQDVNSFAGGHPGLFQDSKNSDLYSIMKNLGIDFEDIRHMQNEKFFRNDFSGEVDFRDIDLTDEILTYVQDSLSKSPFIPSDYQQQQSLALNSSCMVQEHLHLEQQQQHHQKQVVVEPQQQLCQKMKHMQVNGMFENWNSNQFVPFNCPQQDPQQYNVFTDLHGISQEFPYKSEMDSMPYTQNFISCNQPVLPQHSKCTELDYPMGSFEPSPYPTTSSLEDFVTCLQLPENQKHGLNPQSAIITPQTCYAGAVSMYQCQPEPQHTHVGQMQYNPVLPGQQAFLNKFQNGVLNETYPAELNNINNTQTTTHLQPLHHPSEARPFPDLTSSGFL

[3] = biological target: Voltage-gated inwardly rectifying potassium channel KCNH2 (Homo sapiens, UniProt Q12809); conditions: Potency;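 further: confirmatory quantitative high-throughput screen measuring inhibition of hERG channel activity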
Sequence of Voltage-gated inwardly rectifying potassium channel KCNH2 (Q12809 whole entry): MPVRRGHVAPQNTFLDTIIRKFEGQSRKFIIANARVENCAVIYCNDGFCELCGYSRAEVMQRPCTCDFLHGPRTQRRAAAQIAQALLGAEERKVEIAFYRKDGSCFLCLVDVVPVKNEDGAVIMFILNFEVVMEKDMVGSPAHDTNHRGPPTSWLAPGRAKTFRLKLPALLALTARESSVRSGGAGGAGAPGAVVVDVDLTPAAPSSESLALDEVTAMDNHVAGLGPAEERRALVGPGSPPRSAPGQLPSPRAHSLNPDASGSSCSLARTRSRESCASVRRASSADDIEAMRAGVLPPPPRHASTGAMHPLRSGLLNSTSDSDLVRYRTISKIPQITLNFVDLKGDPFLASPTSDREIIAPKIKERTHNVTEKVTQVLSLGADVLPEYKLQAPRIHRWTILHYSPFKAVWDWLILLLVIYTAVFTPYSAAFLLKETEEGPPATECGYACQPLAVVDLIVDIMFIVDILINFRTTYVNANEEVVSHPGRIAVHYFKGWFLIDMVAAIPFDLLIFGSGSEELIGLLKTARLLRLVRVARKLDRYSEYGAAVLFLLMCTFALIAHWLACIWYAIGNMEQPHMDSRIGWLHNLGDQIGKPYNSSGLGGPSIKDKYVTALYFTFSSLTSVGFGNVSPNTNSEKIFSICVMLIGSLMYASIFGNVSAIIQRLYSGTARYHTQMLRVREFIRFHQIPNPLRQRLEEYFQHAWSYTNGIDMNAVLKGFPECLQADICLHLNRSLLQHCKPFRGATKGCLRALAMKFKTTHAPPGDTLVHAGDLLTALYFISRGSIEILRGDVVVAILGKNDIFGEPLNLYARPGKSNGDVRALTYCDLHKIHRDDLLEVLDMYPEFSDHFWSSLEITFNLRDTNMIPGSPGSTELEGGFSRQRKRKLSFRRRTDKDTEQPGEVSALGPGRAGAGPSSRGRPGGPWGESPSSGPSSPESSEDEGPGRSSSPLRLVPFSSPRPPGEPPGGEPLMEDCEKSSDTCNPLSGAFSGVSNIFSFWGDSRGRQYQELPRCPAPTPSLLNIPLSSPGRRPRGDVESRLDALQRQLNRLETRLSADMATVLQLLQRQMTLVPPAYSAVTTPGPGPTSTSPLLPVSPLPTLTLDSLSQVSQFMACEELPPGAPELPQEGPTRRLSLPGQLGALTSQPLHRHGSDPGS

[4] = biological target: Low molecular weight phosphotyrosine protein phosphatase (Homo sapiens, UniProt P24666); format: functional; conditions: read-out: IC50_Mean;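 further: Dose-response confirmation assay measuring inhibition of LMPTP enzyme activity by fluorescence intensity read-out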
Sequence of Low molecular weight phosphotyrosine protein phosphatase (P24666 whole entry): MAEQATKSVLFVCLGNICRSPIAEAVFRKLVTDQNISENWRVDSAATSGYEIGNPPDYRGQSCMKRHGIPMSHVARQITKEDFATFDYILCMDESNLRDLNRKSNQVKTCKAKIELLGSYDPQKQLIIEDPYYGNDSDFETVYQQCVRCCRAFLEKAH

cells [5] = format: functional
[6] = biological target: DNA (cytosine-5)-methyltransferase 1 (Homo sapiens, UniProt P26358); experiment: DNMT1 methyltransferase inhibitors, confirmation, biochemical, fluorescent molecular beacon (AID 602386); format: functional
[7] = Counterscreen for activators of the function of SWI/SNF related, matrix associated, actin dependent regulator of chromatin, subfamily a, member 2 (SMARCA2, BRM): Luminescence-based cell-based high throughput dose response assay to identify non-selective compounds using the VP16 reporter assay.; format: functional
cells [8] = format: functional, cell-based
[9] = Luminescence Cell-Based Dose Confirmation HTS to Identify Activators of 5'UTR Stem-Loop Driven Alpha-Synuclein mRNA Translation in H4 Neuroglioblastoma Cells. [Related pubchem assays: 1829 (Project Summary), 1814 (Primary HTS)]; format: functional
INS1 = experiment: beta cell apoptosis inhibitors, cytokine rescue, dose response, luminescence, retest (AID 449756); format: functional, cell-based; conditions: Rattus norvegicus;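 further: cell death triggered by IL-1 beta plus TNF-alpha plus IFN-gamma mixture; protective hits raise ATP signal compared with cytokine alone wells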
cells [10] = format: functional, cell-based; remark: listed apart in the source
[11] = Luminescence Cell-Based Dose Response HTS to Identify Activators of Luciferase Translation or Activity in H4 […] Cells. [Related pubchem assays: 1829 (Project Summary), 1814 (Primary HTS)]; format: functional
[12] = biological target: T2, Short transient receptor potential channel 4 (Mus musculus, UniProt Q9QUQ5); experiment: mouse TRPC4 channel inhibitors, dose response, cell-based, HEK293 TRPC4/mu-opioid, Fluo-4 calcium (AID 434942); format: functional;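 further: potency of inhibitors blocking the TRPC4 calcium response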
T2 sequence (Q9QUQ5 whole entry): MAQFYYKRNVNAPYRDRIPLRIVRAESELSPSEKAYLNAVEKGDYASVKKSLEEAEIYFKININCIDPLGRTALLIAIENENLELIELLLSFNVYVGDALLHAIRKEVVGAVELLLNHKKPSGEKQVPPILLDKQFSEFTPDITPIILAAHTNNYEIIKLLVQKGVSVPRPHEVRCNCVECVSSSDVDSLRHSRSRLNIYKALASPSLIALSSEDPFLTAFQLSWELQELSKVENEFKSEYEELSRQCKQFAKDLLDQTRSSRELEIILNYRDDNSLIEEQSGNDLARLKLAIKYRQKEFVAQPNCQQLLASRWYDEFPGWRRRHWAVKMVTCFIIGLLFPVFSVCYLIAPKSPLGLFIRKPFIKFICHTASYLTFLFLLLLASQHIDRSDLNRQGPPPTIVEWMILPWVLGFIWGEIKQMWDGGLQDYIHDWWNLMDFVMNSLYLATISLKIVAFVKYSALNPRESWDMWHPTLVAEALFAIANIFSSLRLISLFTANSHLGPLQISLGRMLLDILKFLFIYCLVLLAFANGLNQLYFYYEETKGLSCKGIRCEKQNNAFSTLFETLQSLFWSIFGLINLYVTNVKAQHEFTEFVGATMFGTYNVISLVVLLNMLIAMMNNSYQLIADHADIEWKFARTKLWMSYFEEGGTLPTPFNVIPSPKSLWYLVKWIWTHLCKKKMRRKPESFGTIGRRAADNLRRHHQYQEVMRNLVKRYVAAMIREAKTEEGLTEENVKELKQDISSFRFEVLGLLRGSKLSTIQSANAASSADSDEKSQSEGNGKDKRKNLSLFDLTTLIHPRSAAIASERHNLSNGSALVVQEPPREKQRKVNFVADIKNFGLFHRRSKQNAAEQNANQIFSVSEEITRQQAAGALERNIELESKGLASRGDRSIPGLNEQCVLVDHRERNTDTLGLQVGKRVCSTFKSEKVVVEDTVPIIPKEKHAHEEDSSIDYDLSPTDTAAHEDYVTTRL

[13] = inhibitors of intracellular T. cruzi replication, confirmation, NIH3T3 host cells, beta-gal luminescence (AID 2044); format: functional, cell-based;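 further: intracellular parasites grown in NIH/3T3 mouse fibroblasts as host cells; luminescent beta-galactosidase reporter signal from transgenic T. cruzi replicating inside host cells; inhibitors lower the luminescence signal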
[14] = biological target: SWI/SNF-related matrix-associated actin-dependent regulator of chromatin subfamily A member 2 (Homo sapiens, UniProt P51531); experiment: Luminescence-based cell-based high throughput dose response assay to identify activators of the function of SWI/SNF related, matrix associated, actin dependent regulator of chromatin, subfamily a, member 2 (SMARCA2, BRM).; format: functional
Sequence of SWI/SNF-related matrix-associated actin-dependent regulator of chromatin subfamily A member 2 (P51531 whole entry): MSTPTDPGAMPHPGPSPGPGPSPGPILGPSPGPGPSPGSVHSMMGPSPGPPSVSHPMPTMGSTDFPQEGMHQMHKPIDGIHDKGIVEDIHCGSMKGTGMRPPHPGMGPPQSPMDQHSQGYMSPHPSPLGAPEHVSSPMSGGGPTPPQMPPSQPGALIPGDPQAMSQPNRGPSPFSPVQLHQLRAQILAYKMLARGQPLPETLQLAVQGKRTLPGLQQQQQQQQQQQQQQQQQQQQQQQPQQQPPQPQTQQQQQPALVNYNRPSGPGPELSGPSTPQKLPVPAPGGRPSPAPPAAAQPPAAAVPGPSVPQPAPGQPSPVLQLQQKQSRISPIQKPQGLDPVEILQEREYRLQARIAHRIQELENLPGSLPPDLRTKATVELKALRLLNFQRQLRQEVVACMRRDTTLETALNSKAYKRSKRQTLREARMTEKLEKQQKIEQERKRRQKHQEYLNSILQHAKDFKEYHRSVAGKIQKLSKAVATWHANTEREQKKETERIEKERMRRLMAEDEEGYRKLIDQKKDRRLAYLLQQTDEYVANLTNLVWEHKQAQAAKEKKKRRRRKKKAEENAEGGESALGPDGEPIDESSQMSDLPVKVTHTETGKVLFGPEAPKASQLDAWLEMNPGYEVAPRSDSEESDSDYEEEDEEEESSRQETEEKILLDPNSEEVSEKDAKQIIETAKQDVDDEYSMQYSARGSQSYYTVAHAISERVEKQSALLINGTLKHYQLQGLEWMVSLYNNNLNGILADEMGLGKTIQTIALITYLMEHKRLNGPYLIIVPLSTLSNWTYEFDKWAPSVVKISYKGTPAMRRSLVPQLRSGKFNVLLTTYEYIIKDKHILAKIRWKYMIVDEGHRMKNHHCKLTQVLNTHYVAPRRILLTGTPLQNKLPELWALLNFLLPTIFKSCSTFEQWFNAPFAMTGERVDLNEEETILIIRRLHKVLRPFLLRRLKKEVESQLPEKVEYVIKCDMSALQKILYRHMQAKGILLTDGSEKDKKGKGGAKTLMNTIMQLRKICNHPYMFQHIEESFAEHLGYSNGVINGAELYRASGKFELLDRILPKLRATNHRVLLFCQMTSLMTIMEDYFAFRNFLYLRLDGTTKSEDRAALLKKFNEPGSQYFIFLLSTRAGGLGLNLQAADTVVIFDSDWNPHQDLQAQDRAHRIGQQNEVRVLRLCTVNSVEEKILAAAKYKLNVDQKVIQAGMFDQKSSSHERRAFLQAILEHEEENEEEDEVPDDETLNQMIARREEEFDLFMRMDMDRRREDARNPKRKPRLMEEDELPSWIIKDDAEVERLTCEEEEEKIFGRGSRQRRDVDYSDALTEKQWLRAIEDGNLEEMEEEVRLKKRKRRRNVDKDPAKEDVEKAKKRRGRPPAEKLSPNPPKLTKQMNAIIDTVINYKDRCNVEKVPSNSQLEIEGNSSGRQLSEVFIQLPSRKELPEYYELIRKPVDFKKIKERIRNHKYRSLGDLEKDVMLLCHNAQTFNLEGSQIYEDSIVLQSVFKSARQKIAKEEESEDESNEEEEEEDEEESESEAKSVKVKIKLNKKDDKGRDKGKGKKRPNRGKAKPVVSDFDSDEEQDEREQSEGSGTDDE

[15] = cytotoxicity toward NIH3T3 fibroblasts, dose response, counter-screen, cell-based, ATP luminescence, mouse fibroblasts (AID 2010); format: functional;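 further: cells exposed to compound for about 90 hours before reading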
H4 = experiment: Luminescence Cell-Based Dose Response HTS to Identify Activators of 5'UTR Stem-Loop Driven Prion Protein mRNA Translation in H4 Neuroglioblastoma Cells. [Related pubchem assays: 1829 (Project Summary), 1814 (Primary HTS)]; format: functional; conditions: Homo sapiens
[16] = biological target: Hepatocyte nuclear factor 4-alpha (Homo sapiens, UniProt P41235); format: functional, cell-based;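 further: biochemical luminescence-based dose-response counterscreen measuring inhibition of HNF4 dimerization, run alongside a screen for blockers of ABHD5–perilipin-5 interaction; split luciferase complementation of HNF4 fusion proteins in cell lysate measuring dimerization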
Sequence of Hepatocyte nuclear factor 4-alpha (P41235 whole entry, the tested form may be a part): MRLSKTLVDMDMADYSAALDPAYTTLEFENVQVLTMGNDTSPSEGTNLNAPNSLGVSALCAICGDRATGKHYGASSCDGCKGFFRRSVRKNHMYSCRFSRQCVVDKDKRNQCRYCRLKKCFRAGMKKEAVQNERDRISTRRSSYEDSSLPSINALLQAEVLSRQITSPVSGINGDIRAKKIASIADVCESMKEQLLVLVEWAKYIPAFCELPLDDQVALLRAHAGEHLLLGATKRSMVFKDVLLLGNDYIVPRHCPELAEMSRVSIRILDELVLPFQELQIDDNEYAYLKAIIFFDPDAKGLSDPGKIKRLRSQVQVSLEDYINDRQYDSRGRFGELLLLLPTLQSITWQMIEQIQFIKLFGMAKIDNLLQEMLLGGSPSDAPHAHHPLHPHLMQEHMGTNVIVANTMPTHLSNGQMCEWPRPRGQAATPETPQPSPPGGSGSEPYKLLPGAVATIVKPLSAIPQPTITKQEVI

CHO = experiment: cytotoxicity in TLR9-MyD88 CHO cells, dose response, cytotoxicity control for TLR9-MyD88 binding inhibitor project, cell-based, luminescence (AID 588339); format: functional, hamster; conditions: Cricetulus griseus;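 further: CHO cells stably coexpressing TLR9 and MyD88 fusions from primary screen; compound exposure lasted 48 hours before viability readout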
Beta Lactamase = Beta Lactamase (Pseudomonas aeruginosa, UniProt Q932Y6); experiment: beta-lactamase reporter inhibitor potency, dose response, artefact control for TLR9-MyD88 binding inhibitor project, BLA reporter cells, FRET fluorescence (AID 588341); format: cell-based;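 further: cell based assay in CHO-K1 cells stably expressing beta-lactamase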
Sequence of Beta Lactamase (Q932Y6 whole entry): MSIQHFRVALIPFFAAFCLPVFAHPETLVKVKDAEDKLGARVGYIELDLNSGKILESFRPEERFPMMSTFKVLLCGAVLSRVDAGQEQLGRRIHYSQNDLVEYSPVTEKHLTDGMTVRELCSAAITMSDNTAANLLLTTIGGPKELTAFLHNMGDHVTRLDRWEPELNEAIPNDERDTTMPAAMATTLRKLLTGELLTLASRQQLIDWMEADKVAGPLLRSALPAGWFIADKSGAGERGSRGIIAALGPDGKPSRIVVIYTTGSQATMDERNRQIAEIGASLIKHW

[17] = HEK293T cell cytotoxicity, dose response, cytotoxicity control for HIV Vif inhibitor project, cherry-picks (AID 652208); format: functional, cell-based
[18] = Luminescence Cell-Based Dose Retest to Confirm Inhibitors of Cancer Stem Cells. [Related pubchem assays (depositor defined):AID2717, AID2721]; format: functional; conditions: Homo sapiens
[19] = biological target: Photoreceptor-specific nuclear receptor (Homo sapiens, UniProt Q9Y5X4); format: functional, cell-based;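 further: CHO-S cells with Gal4-NCOR and VP16-NR2E3 two-hybrid luciferase reporter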
[20] = biological target: T3, Sentrin-specific protease 1 (Homo sapiens, UniProt Q9P0U3); experiment: potency of human SENP1 inhibitors, dose response, biochemical, kinetic FRET (AID 651697); format: functional; conditions: read-out: IC50_Mean
T3 sequence (Q9P0U3 whole entry): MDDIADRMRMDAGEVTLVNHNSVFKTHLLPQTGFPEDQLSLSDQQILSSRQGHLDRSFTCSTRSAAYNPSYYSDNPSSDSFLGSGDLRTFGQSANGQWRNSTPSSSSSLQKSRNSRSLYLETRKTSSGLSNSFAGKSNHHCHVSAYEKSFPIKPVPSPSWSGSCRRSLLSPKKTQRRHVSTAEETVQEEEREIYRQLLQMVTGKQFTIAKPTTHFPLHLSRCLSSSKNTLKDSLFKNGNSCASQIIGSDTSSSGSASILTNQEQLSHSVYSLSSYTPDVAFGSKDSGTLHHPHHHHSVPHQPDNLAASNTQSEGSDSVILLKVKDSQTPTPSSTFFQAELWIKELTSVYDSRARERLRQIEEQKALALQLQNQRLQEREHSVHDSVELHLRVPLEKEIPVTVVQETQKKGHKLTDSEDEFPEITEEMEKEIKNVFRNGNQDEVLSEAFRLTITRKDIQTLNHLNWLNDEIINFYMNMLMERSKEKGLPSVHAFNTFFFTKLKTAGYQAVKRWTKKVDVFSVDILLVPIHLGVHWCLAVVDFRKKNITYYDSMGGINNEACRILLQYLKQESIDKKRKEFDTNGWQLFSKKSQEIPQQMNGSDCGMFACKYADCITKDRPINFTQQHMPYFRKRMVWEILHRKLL

[21] = biological target: T3, Sentrin-specific protease 1; experiment: Dose response confirmation of small molecule inhibitors of the catalytic domain of the SUMO protease, SENP1 in a FRET assay.; format: functional; conditions: read-out: IC50_Mean

Sequence of Fructose-bisphosphate aldolase (P9WQA3 whole entry): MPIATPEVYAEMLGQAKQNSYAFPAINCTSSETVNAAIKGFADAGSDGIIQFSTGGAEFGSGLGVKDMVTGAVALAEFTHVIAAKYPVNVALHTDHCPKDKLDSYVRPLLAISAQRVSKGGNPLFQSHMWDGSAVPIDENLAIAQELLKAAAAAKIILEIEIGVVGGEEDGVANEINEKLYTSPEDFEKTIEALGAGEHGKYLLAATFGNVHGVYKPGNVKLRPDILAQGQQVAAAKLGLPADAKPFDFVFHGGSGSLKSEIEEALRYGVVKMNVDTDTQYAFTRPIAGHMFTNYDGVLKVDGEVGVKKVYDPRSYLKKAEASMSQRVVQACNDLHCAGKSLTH

Cc1ccc(-c2cc(C(=O)O)c3cc(Br)ccc3n2)s1
IC50 [1]: > 1.11 µM (active)

CCc1cc2cc(C(=O)N3CCN(Cc4ccccc4)CC3)sc2s1
IC50 (Beta-galactosidase): > 80 µM (inactive)

[O-]/[N+](=N/c1ccccc1)c1ccccc1
AC50 [2]: 56.2 µM (inconclusive) | AC50 [3]: 50.1 µM (inconclusive)

CCn1cc(C(=O)O)c(=O)c2cc(F)c(N3CCN(C(=S)NC(=O)c4ccccc4)CC3)cc21
IC50 [4]: 15.4 µM (active) | IC50 (cells [5]): 42.6 µM (active)

CCN(CC)CCn1c2ccccc2c2cnc(N)c(C#N)c21
IC50 [6]: > 99 µM (inactive) | EC50 [7]: > 91.2 µM (inactive) | EC50 (cells [8]): > 350 µM (not active) | EC50 [9]: 10.2 µM (active) | AC50 (INS1): 3.09 µM (active) | EC50 (cells [10]): > 350 µM (not active) | EC50 [11]: 21 µM (active) | EC50 [12]: 4.73 µM (active) | EC50 [13]: 1.21 µM (active) | EC50 [14]: > 3.38 µM (active) | EC50 [15]: 9.47 µM (active) | EC50 (H4): > 120 µM (not active)

CCCCCCC=C1CCC(CN2CCCC2)C1=O (configuration not stated)
IC50 [16]: 2.25 µM (active)

COc1ccc(-c2nc3cnccn3c2NC2CCCCC2)cc1-c1cccc(Cl)c1
IC50 (CHO): 25.4 µM (inactive) | IC50 (Beta Lactamase): 6.78 µM (active) | AC50 [17]: 39.2 µM (active) | AC50 [18]: 4.23 µM (active)

COc1ccc(NC(=O)c2sc(=O)n(Cc3ccc(F)c(Cl)c3)c2C)cc1OC
IC50 [19]: 8.01 µM (active)

COc1ccc(C(C(=O)Nc2ccc3c(c2)OCCO3)n2c(=O)c(-c3ccco3)nc3ccccc32)cc1 (configuration not stated)
IC50 [16]: 12.5 µM (inactive)

CCOc1cccc(/C=C2\NC(=S)N(c3ccccc3)C2=O)c1O
IC50 [20]: 80 µM (inactive) | IC50 [21]: 20 µM (inactive)
